Measurements: US12102608B2, “Composition of acylethanolamides from olive oil fatty acids” (EPITECH GROUP S.P.A., priority 2021, dated 2024)

How the values were obtained:
Format in all cases: in vivo, rat
[1] = system: CAR-induced thermal hyperalgesia; experiment: Plantar test, thermal hyperalgesia after CAR injection; details: per os 30 min before CAR in 2% CMC; PEA 2 mg/kg, OEA 6 mg/kg, complex/silica 20 mg/kg; 1 h to 6 h after CAR, vs. vehicle; FIG. 2
Experimental: (§1) The study was conducted on male Sprague-Dawley rats (200-235 g; Harlan, Nossan, Italy) fed ad libitum and housed in cages with a controlled sleep/wake cycle. Before the start of the experimentation, the animals were subjected to an acclimatization period of 1 week considering all the experimental procedures and protocols, compliant with the principles of the care of laboratory animals approved by the Italian Ministry of Health and respecting the guidelines of the European Economic Community. The animals were subjected to a single injection of 100 μl of saline solution containing 1% Carrageenan (CAR) in one of the two hind legs. Paw edema was measured with a plethysmometer (Ugo Basile, Comerio, Varese, Italy) (Salvemini D et al. Nitric oxide: A key mediator in the early and late phase of carrageenan-induced rat paw inflammation. Br. J. Pharmacol. 1996; 118: 829-838) before the CAR injection and after the inoculation thereof every hour for 6 h. The hyperalgesic responses to heat were assessed using the plantar test with a cut-off latency of 20 sec to avoid tissue damage. The rats were individually housed in plexiglass compartments to acclimatize them before subjecting them to thermal stimulation. The suspension latency period of the injected paw was determined by an electronic circuit and the results were expressed in seconds. […]

[2] = system: tissue damage of the paw of animals subjected to CAR injection; experiment: Histology of paw tissue (Hematoxylin/Eosin), tissue damage score; details: per os 30 min before CAR; PEA 2 mg/kg, OEA 6 mg/kg, complex/silica 20 mg/kg; tissue taken 6 h after CAR; FIG. 3
Experimental: (§2) The study was conducted on male Sprague-Dawley rats (200-235 g; Harlan, Nossan, Italy) fed ad libitum and housed in cages with a controlled sleep/wake cycle. Before the start of the experimentation, the animals were subjected to an acclimatization period of 1 week considering all the experimental procedures and protocols, compliant with the principles of the care of laboratory animals approved by the Italian Ministry of Health and respecting the guidelines of the European Economic Community. […]

[3] = system: paw edema of animals injected with CAR; experiment: Carrageenan-induced paw edema, plethysmometer; details: per os 30 min before CAR in 2% CMC; PEA 2 mg/kg, OEA 6 mg/kg, complex/silica 20 mg/kg; 1 h to 6 h after CAR; FIG. 1
Experimental: as §1, with “The rats were individually housed in plexiglass compartments to acclimatize them before subjecting them to thermal stimulation.” left out, “seconds. Edema was expressed as increased paw volume (mL) after the CAR injection with respect to the pre-injection value for all the animals.” for “seconds.”

[4] = system: mast cells in the paw tissue; experiment: Toluidine Blue staining of mast cells in paw tissue; details: per os 30 min before CAR; PEA 2 mg/kg, OEA 6 mg/kg, complex/silica 20 mg/kg; 6 h after CAR; PEA and OEA compared with sham; FIG. 4
Experimental: as §2

Structure (SMILES) | CAR-induced thermal hyperalgesia (plantar test latency) [1] | paw tissue damage (E/E histological score) [2] | edema (increased paw volume) caused by CAR [3] | number of mast cells / mast cell infiltrate in paw tissue [4]
CCCCCCCCCCCCCCCC(=O)NCCO [PEA, palmitoylethanolamide] | No analgesic effect | not capable of protecting the paw tissues | No significant reduction in the edema | significant increase in the number of mast cells
CCCCCCCC/C=C\CCCCCCCC(=O)NCCO [OEA, oleoylethanolamide] | No analgesic effect | not capable of protecting the paw tissues | No significant reduction in the edema | significant increase in the number of mast cells
